Earlier results, collected in patent publication US8633323B2, “Process for preparing bis(thiohydrazide amides)” (Synta Pharmaceuticals Corp., priority 2008, dated 2014).

Experiments:
[1] = system: stage 1V metastatic melanoma; details: in combination with Taxol, in relation to patients treated with Taxol alone; patients suffering from stage 1V metastatic melanoma
[2] = background statement: effective administration has been challenging

In the case of `CN(NC(=O)CC(=O)NN(C)C(=S)c1ccccc1)C(=S)c1ccccc1` [N-malonyl-bis(N′-methyl-N′-thiobenzoylhydrazide)], the time to progress [1] is given as “increase the time to progress” and the solubility [2] is given as “low solubility”.
